Measurements as given in US20140243227A1, “CULTURE MEDIA FOR STEM CELLS” (Koninklijke Nederlandse Akademie van Wetenschappen, priority 2011, published 2014).
Where two headings read alike, the source gives them in different places.

Key:
[1] = system: human intestinal organoids; assay: Differentiation and proliferation of human intestinal organoids; format: cell-based; settings: human organoids after withdrawal of Wnt
liver organoids = assay: Liver organoid expansion with PGE2 or arachidonic acid; format: cell-based, human; settings: for Number and size of liver organoids versus basal medium alone: PGE2 50 nM or AA 10 ug/ml
human colon crypts = assay: Screening of reagents for optimization of human intestinal organoids culture (plating efficiency); format: cell-based
[2] = system: colon and liver organoids; assay: GSK3 inhibitor as Wnt replacement in organoid culture media; format: cell-based; settings: replacement for Wnt
human colon organoids = assay: Long-term culture of human colon organoids (culture period, passages); format: cell-based; settings: nicotinamide 10 mM, WENR + gastrin
[3] = Second screening (WENR + gastrin + Nicotinamide)

Row | Compound | Activity (plating efficiency compared with control after 4 days culture) (human colon crypts; [3]) | Activity (plating efficiency compared with control after 4 days culture) (human colon crypts; First screening (WENR)) | also measured
1 | Oc1ccc(-c2nc(-c3ccc(F)cc3)c(-c3ccncc3)[nH]2)cc1 [SB-202190, 4-[4-(4-Fluorophenyl)-5-(4-pyridinyl)-1H-imidazol-2-yl]phenol] |  |  | Goblet and enteroendocrine cell differentiation [1]: strongly inhibited this differentiation
2 | CCCCC/C=C\C/C=C\C/C=C\C/C=C\CCCC(=O)O [AA, Arachidonic acid] |  |  | Number and size of liver organoids versus basal medium alone (liver organoids): greater number of larger organoids
3 | COc1cccc(-c2cc(=O)c3ccccc3o2)c1N [PD98059] | 1− (1− = 0-50%) |  | 
4 | C[C@]12CCC(=O)C=C1CC[C@@H]1[C@@H]2[C@@H](O)C[C@@]2(C)[C@H]1CC[C@]2(O)C(=O)CO [Hydrocortison] |  | 0 | 
5 | FGF2: growth factor (Peprotech) |  | 0 | 
6 | C[C@H](NC(=O)Cc1cc(F)cc(F)c1)C(=O)N[C@H](C(=O)OC(C)(C)C)c1ccccc1 [DAPT] |  |  | Maximal concentration efficiency (liver organoid cultures; titration, hepatocyte marker expression): 10 µM
7 | O=C1O[C@H]([C@@H](O)CO)C(O)=C1O [L-Ascorbic acid] |  | 0 | 
8 | C[C@@H](N)[C@H]1CC[C@H](C(=O)Nc2ccncc2)CC1.Cl.Cl.O [Y27632, R-(+)-trans-4-(1-aminoethyl)-N-(4-Pyridyl)cyclohexanecarboxamide dihydrochloride monohydrate] |  |  | Activity (plating efficiency compared with control after 4 days culture) (human colon crypts): 1+ (key: 0 = no change; 1+ = <50% increase; 2+ = 50-100% increase; 3+ = >100% increase; 1− = 0-50%; 2− = 50-100% decrease; 3− = >100% decrease); Organoid morphology note in Activity column (human colon crypts): cystic
9 | Cc1nc2sccn2c(=O)c1CCN1CCC(=C(c2ccccc2)c2ccc(F)cc2)CC1 [R 59022] |  |  | Result: CYP3AII (liver organoid cultures): +
10 | Exendin4: GLP1 analog; a 39 amino acid peptide |  | 0 | 
11 | c1cc(-c2cnn3cc(-c4ccc(OCCN5CCCCC5)cc4)cnc23)ccn1 [Dorsomorphin] | 0 |  | 
12 | CC(/C=C/C(=O)NO)=C\[C@@H](C)C(=O)c1ccc(N(C)C)cc1 [TSA] |  |  | Result: CYP3AII (liver organoid cultures): −
13 | Oc1c2ccccc2c2c3c(cccc13)N=N2 [SP600125] | 0 |  | 
14 | Cc1c[nH]c(-c2cnc(NCCNc3ccc(C#N)cn3)nc2-c2ccc(Cl)cc2Cl)n1 [CHIR99021] |  |  | Wnt agonist activity in the culture media [2]: effective Wnt agonist
15 | O=C(O)/C=C(/CCc1ccc(Cl)cc1)c1ccccc1 [PS48] | 0 |  | 
16 | LIF: growth factor (Millipore) |  | 0 | 
17 | COc1cc2nc(N3CCCN(C)CC3)nc(NC3CCN(Cc4ccccc4)CC3)c2cc1OC [BIX01294] | 1− (1− = 0-50%) |  | 
18 | CCCCC[C@H](O)/C=C/[C@H]1[C@H](O)CC(=O)[C@@H]1C/C=C\CCCC(=O)O [PGE2, prostaglandin E2] |  | 1+ (1+ = <50% increase) | Culturing time without growth reduction (liver organoids; 5 fold expansion per week, 5 weeks without PGE2): at least 8 weeks; Number and size of liver organoids versus basal medium alone (liver organoids): greater number of larger organoids
19 | NC(=O)c1cccnc1 [Nicotinamide] |  | 3+ (3+ = >100% increase) | Prolongation of culture period (human colon organoids): essential for prolongation of culture period beyond the initial 7 days; Goblet and enteroendocrine cell differentiation [1]: strongly inhibited this differentiation
20 | Cholera Toxin |  |  | Activity (plating efficiency compared with control after 4 days culture) (human colon crypts): 1+ (key: 0 = no change; 1+ = <50% increase; 2+ = 50-100% increase; 3+ = >100% increase; 1− = 0-50%; 2− = 50-100% decrease; 3− = >100% decrease)
21 | Cc1ccc(C(=O)Cn2c3c(sc2=N)CCCC3)cc1 [Pifithrin-α] | 0 |  | 
22 | O.O.O.O=C(O)c1ncccc1O.O=C(O)c1ncccc1O.[O]=[V] [VO-OHpic trihydrate] | 3− (3− = >100% decrease) |  | 
23 | Nc1ncn([C@@H]2O[C@H](CO)[C@@H](O)[C@H]2O)c(=O)n1 [5 Azacytidin] | 1− (1− = 0-50%) |  | 
